{
  "source": "patent US20250382273A1",
  "about": "(INSTITUT NATIONAL DE LA SANTE ET DE LA RECHERCHE MEDICALE, priority 2022, published 2025)",
  "data": [
    {"system": "M. tuberculosis H37Rv_DdnL49P_gfp", "type": "cell-based, Mycobacterium tuberculosis", "conditions": "in combination with pretomanid, unit inferred; read-out: average EC50 H37Rv_DdnL49P_gfp", "units": {"EC50": "µM"}, "values": [
      {"smiles": "O=C(Nc1nc2ccc(Oc3ccnc(C(F)(F)F)c3)cc2s1)[C@@H]1C2C=CC(C2)[C@@H]1C(=O)O", "note": "(some centres unmarked) [Example 32, 3-[[6-[[2-(trifluoromethyl)-4-pyridyl]oxy]-1,3-benzothiazol-2-yl]carbamoyl]bicyclo[2.2.1]hept-5-ene-2-carboxylic acid]", "EC50": 0.32},
      {"smiles": "O=C1[C@@H]2[C@H](C(=O)N1c1nc3ccc(Oc4ccc(C(F)(F)F)cn4)cc3s1)[C@@H]1C=C[C@H]2C1", "note": "[Example 36, (1R,2S,6R,7S)-4-[6-[[5-(trifluoromethyl)-2-pyridyl]oxy]-1,3-benzothiazol-2-yl]-4-azatricyclo[5.2.1.02,6]dec-8-ene-3,5-dione]", "EC50": 0.49},
      {"smiles": "COc1ccc(-c2ccc3nc(NC(=O)[C@@H]4C5C=CC(C5)[C@@H]4C(=O)O)sc3c2)cc1", "note": "(some centres unmarked) [Example 54, 3-[[6-(4-methoxyphenyl)-1,3-benzothiazol-2-yl]carbamoyl]bicyclo[2.2.1]hept-5-ene-2-carboxylic acid]", "EC50": 0.69},
      {"smiles": "O=C(Nc1nc2ccc(-c3ccc(C(F)(F)F)cc3)cc2s1)[C@@H]1C2C=CC(C2)[C@@H]1C(=O)O", "note": "(some centres unmarked) [Example 60, 3-[[6-[4-(trifluoromethyl)phenyl]-1,3-benzothiazol-2-yl]carbamoyl]bicyclo[2.2.1]hept-5-ene-2-carboxylic acid]", "EC50": 0.48}
    ]},
    {"system": "M. tuberculosis H37Rv_DdnL49P_gfp", "type": "cell-based, Mycobacterium tuberculosis", "conditions": "read-out: EC50 H37Rv_DdnL49P_gfp", "units": {"EC50": "µM"}, "values": [
      {"smiles": "Cc1ccnc(Oc2ccc3nc(N4C(=O)[C@@H]5C6C=CC(C6)[C@@H]5C4=O)sc3c2)c1", "note": "[Example 30]", "EC50": "< 1"},
      {"smiles": "N#Cc1ccnc(Oc2ccc3nc(N4C(=O)[C@@H]5[C@H](C4=O)[C@@H]4C=C[C@H]5C4)sc3c2)c1", "note": "[Example 31, 2-[[2-[(1R,2S,6R,7S)-3,5-dioxo-4-azatricyclo[5.2.1.02,6]dec-8-en-4-yl]-1,3-benzothiazol-6-yl]oxy]pyridine-4-carbonitrile]", "EC50": "5 to 10"},
      {"smiles": "O=C(Nc1nc2ccc(Oc3ccnc(C(F)(F)F)c3)cc2s1)[C@@H]1C2C=CC(C2)[C@@H]1C(=O)O", "note": "(some centres unmarked) [Example 32, 3-[[6-[[2-(trifluoromethyl)-4-pyridyl]oxy]-1,3-benzothiazol-2-yl]carbamoyl]bicyclo[2.2.1]hept-5-ene-2-carboxylic acid]", "EC50": "< 1"},
      {"smiles": "O=C1[C@@H]2[C@H](C(=O)N1c1nc3ccc(Oc4cccc(C(F)(F)F)n4)cc3s1)[C@@H]1C=C[C@H]2C1", "note": "[Example 34, (1R,2S,6R,7S)-4-[6-[[6-(trifluoromethyl)-2-pyridyl]oxy]-1,3-benzothiazol-2-yl]-4-azatricyclo[5.2.1.02,6]dec-8-ene-3,5-dione]", "EC50": "1 to 5"},
      {"smiles": "O=C(Nc1nc2ccc(Oc3ccc(C(F)(F)F)cn3)cc2s1)[C@@H]1C2C=CC(C2)[C@@H]1C(=O)O", "note": "(some centres unmarked) [Example 35, 3-[[6-[[5-(trifluoromethyl)-2-pyridyl]oxy]-1,3-benzothiazol-2-yl]carbamoyl]bicyclo[2.2.1]hept-5-ene-2-carboxylic acid]", "EC50": "1 to 5"},
      {"smiles": "O=C1[C@@H]2[C@H](C(=O)N1c1nc3ccc(Oc4ccc(C(F)(F)F)cn4)cc3s1)[C@@H]1C=C[C@H]2C1", "note": "[Example 36, (1R,2S,6R,7S)-4-[6-[[5-(trifluoromethyl)-2-pyridyl]oxy]-1,3-benzothiazol-2-yl]-4-azatricyclo[5.2.1.02,6]dec-8-ene-3,5-dione]", "EC50": "< 1"},
      {"smiles": "O=C(Nc1nc2ccc(Oc3ccc(Br)cn3)cc2s1)[C@@H]1C2C=CC(C2)[C@@H]1C(=O)O", "note": "(some centres unmarked) [Example 37, 3-[[6-[(5-bromo-2-pyridyl)oxy]-1,3-benzothiazol-2-yl]carbamoyl]bicyclo [2.2.1]hept-5-ene-2-carboxylic acid]", "EC50": "1 to 5"},
      {"smiles": "O=C(O)C1C2C=CC(C2)C1C(=O)Nc1nc2ccc([N+](=O)[O-])cc2s1", "note": "(centres unmarked) [Example 38, 3-[(6-nitro-1,3-benzothiazol-2-yl)carbamoyl]bicyclo[2.2.1]hept-5-ene-2-carboxylic acid]", "EC50": "5 to 10"},
      {"smiles": "N#Cc1ccc2nc(NC(=O)[C@@H]3C4C=CC(C4)[C@@H]3C(=O)O)sc2c1", "note": "(some centres unmarked) [Example 40, 3-[(6-cyano-1,3-benzothiazol-2-yl)carbamoyl]bicyclo[2.2.1]hept-5-ene-2-carboxylic acid]", "EC50": "5 to 10"},
      {"smiles": "COC(=O)c1ccc2nc(NC(=O)[C@@H]3C4C=CC(C4)[C@@H]3C(=O)O)sc2c1", "note": "(some centres unmarked) [Example 41, 3-[(6-methoxycarbonyl-1,3-benzothiazol-2-yl)carbamoyl]bicyclo[2.2.1]hept-5-ene-2-carboxylic acid]", "EC50": "1 to 5"},
      {"smiles": "O=C(Nc1nc2ccc(F)cc2s1)[C@@H]1C2C=CC(C2)[C@@H]1C(=O)O", "note": "(some centres unmarked) [Example 42, 3-[(6-fluoro-1,3-benzothiazol-2-yl)carbamoyl]bicyclo[2.2.1]hept-5-ene-2-carboxylic acid]", "EC50": "1 to 5"},
      {"smiles": "O=C(Nc1nc2ccc(C(F)(F)F)cc2s1)[C@@H]1C2C=CC(C2)[C@@H]1C(=O)O", "note": "(some centres unmarked) [Example 43, 3-[[6-(trifluoromethyl)-1,3-benzothiazol-2-yl]carbamoyl]bicyclo[2.2.1]hept-5-ene-2-carboxylic acid]", "EC50": "1 to 5"},
      {"smiles": "O=C(Nc1nc2ccc(OC(F)(F)F)cc2s1)[C@@H]1C2C=CC(C2)[C@@H]1C(=O)O", "note": "(some centres unmarked) [Example 44, 3-[[6-(trifluoromethoxy)-1,3-benzothiazol-2-yl]carbamoyl]bicyclo[2.2.1]hept-5-ene-2-carboxylic acid]", "EC50": "1 to 5"},
      {"smiles": "O=C1[C@@H]2[C@H](C(=O)N1c1nc3ccc(OC(F)(F)F)cc3s1)[C@@H]1C=C[C@H]2C1", "note": "[Example 45, (1R,2S,6R,7S)-4-[6-(trifluoromethoxy)-1,3-benzothiazol-2-yl]-4-azatricyclo[5.2.1.02,6]dec-8-ene-3,5-dione]", "EC50": "5 to 10"},
      {"smiles": "O=C(Nc1nc2ccc(I)cc2s1)[C@@H]1C2C=CC(C2)[C@@H]1C(=O)O", "note": "(some centres unmarked) [Example 49, 3-[(6-iodo-1,3-benzothiazol-2-yl)carbamoyl]bicyclo[2.2.1]hept-5-ene-2-carboxylic acid]", "EC50": "1 to 5"},
      {"smiles": "O=C(Nc1nc2ccc(-c3ccccc3)cc2s1)[C@@H]1C2C=CC(C2)[C@@H]1C(=O)O", "note": "(some centres unmarked) [Example 51]", "EC50": "1 to 5"},
      {"smiles": "O=C(Nc1nc2ccc(C3CCCCC3)cc2s1)[C@@H]1C2C=CC(C2)[C@@H]1C(=O)O", "note": "(some centres unmarked) [Example 52, 3-[(6-cyclohexyl-1,3-benzothiazol-2-yl)carbamoyl]bicyclo[2.2.1]hept-5-ene-2-carboxylic acid]", "EC50": "1 to 5"},
      {"smiles": "Cc1ccc(-c2ccc3nc(NC(=O)[C@@H]4C5C=CC(C5)[C@@H]4C(=O)O)sc3c2)cc1", "note": "(some centres unmarked) [Example 53, 3-[[6-(p-tolyl)-1,3-benzothiazol-2-yl]carbamoyl]bicyclo[2.2.1]hept-5-ene-2-carboxylic acid]", "EC50": "< 1"},
      {"smiles": "COc1ccc(-c2ccc3nc(NC(=O)[C@@H]4C5C=CC(C5)[C@@H]4C(=O)O)sc3c2)cc1", "note": "(some centres unmarked) [Example 54, 3-[[6-(4-methoxyphenyl)-1,3-benzothiazol-2-yl]carbamoyl]bicyclo[2.2.1]hept-5-ene-2-carboxylic acid]", "EC50": "< 1"},
      {"smiles": "O=C(Nc1nc2ccc(-c3ccc(Cl)cc3)cc2s1)[C@@H]1C2C=CC(C2)[C@@H]1C(=O)O", "note": "(some centres unmarked) [Example 55, 3-[[6-(4-chlorophenyl)-1,3-benzothiazol-2-yl]carbamoyl]bicyclo[2.2.1]hept-5-ene-2-carboxylic acid]", "EC50": "< 1"},
      {"smiles": "O=C(Nc1nc2ccc(-c3ccc(Cl)c(Cl)c3)cc2s1)[C@@H]1C2C=CC(C2)[C@@H]1C(=O)O", "note": "(some centres unmarked) [Example 56, 3-[[6-(3,4-dichlorophenyl)-1,3-benzothiazol-2-yl]carbamoyl]bicycle [2.2.1]hept-5-ene-2-carboxylic acid]", "EC50": "1 to 5"},
      {"smiles": "O=C(Nc1nc2ccc(-c3ccccc3C(F)(F)F)cc2s1)[C@@H]1C2C=CC(C2)[C@@H]1C(=O)O", "note": "(some centres unmarked) [Example 57, 3-[6-[[2-(trifluoromethyl)phenyl]-1,3-benzothiazol-2-yl]carbamoyl]bicyclo[2.2.1]hept-5-ene-2-carboxylic acid]", "EC50": "10 to 20"},
      {"smiles": "O=C1C2C3C=CC(C3)C2C(=O)N1c1nc2ccc(-c3ccccc3C(F)(F)F)cc2s1", "note": "[Example 58, (1R,2S,6R,7S)-4-[6-[[2-(trifluoromethyl)phenyl]-1,3-benzothiazol-2-yl]-4-azatricyclo [5.2.1.02,6]dec-8-ene-3,5-dione]", "EC50": "10 to 20"},
      {"smiles": "O=C(Nc1nc2ccc(-c3cccc(C(F)(F)F)c3)cc2s1)[C@@H]1C2C=CC(C2)[C@@H]1C(=O)O", "note": "(some centres unmarked) [Example 59, 3-[[6-[3-(trifluoromethyl)phenyl]-1,3-benzothiazol-2-yl]carbamoyl]bicyclo[2.2.1]hept-5-ene-2-carboxylic acid]", "EC50": "1 to 5"},
      {"smiles": "O=C(Nc1nc2ccc(-c3ccc(C(F)(F)F)cc3)cc2s1)[C@@H]1C2C=CC(C2)[C@@H]1C(=O)O", "note": "(some centres unmarked) [Example 60, 3-[[6-[4-(trifluoromethyl)phenyl]-1,3-benzothiazol-2-yl]carbamoyl]bicyclo[2.2.1]hept-5-ene-2-carboxylic acid]", "EC50": "< 1"},
      {"smiles": "O=C1[C@@H]2[C@H](C(=O)N1c1nc3ccc(-c4ccc(C(F)(F)F)cc4)cc3s1)[C@@H]1C=C[C@H]2C1", "note": "[Example 61, (1R,2S,6R,7S)-4-[6-[4-(trifluoromethyl)phenyl]-1,3-benzothiazol-2-yl]-4-azatricyclo[5.2.1.02,6]dec-8-ene-3,5-dione]", "EC50": "< 1"},
      {"smiles": "O=C(Nc1nc2ccc(-c3ccc(OC(F)(F)F)cc3)cc2s1)[C@@H]1C2C=CC(C2)[C@@H]1C(=O)O", "note": "(some centres unmarked) [Example 62, 3-[[6-[4-(trifluoromethoxy)phenyl]-1,3-benzothiazol-2-yl]carbamoyl]bicyclo[2.2.1]hept-5-ene-2-carboxylic acid]", "EC50": "< 1"},
      {"smiles": "O=C1[C@@H]2[C@H](C(=O)N1c1nc3ccc(-c4ccc(O)cc4)cc3s1)[C@@H]1C=C[C@H]2C1", "note": "[Example 63, (1R,2S,6R,7S)-4-[6-(4-hydroxyphenyl)-1,3-benzothiazol-2-yl]-4-azatricyclo[5.2.1.02,6]dec-8-ene-3,5-dione]", "EC50": "5 to 10"},
      {"smiles": "O=C(Nc1nc2ccc(-c3ccncc3)cc2s1)[C@@H]1C2C=CC(C2)[C@@H]1C(=O)O", "note": "(some centres unmarked) [Example 64, 3-[[6-(4-pyridyl)-1,3-benzothiazol-2-yl]carbamoyl]bicyclo[2.2.1]hept-5-ene-2-carboxylic acid]", "EC50": "5 to 10"},
      {"smiles": "O=C1[C@@H]2C3C=CC(C3)[C@@H]2C(=O)N1c1nc2ccc(-c3ccc(F)nc3)cc2s1", "note": "[Example 65, (1R,2S,6R,7S)-4-[6-(6-fluoro-3-pyridyl)-1,3-benzothiazol-2-yl]-4-azatricyclo[5.2.1.02.6]dec-8-ene-3,5-dione]", "EC50": "1 to 5"},
      {"smiles": "O=C(O)C1C2C=CC(C2)[C@H]1C(=O)Nc1nc2ccc(-c3ccc(C(F)(F)F)nc3)cc2s1", "note": "(some centres unmarked) [Example 66, 3-[[6-[6-(trifluoromethyl)-3-pyridyl]-1,3-benzothiazol-2-yl]carbamoyl]bicyclo [2.2.1]hept-5-ene-2-carboxylic acid]", "EC50": "1 to 5"},
      {"smiles": "O=C1[C@@H]2[C@H](C(=O)N1c1nc3ccc(-c4ccc(C(F)(F)F)nc4)cc3s1)[C@@H]1C=C[C@H]2C1", "note": "[Example 67, (1R,2S,6R,7S)-4-[6-[6-(trifluoromethyl)-3-pyridyl]-1,3-benzothiazol-2-yl]-4-azatricyclo [5.2.1.02,6]dec-8-ene-3,5-dione]", "EC50": "1 to 5"},
      {"smiles": "O=C1[C@@H]2[C@H](C(=O)N1c1nc3ccc(-c4ccsc4)cc3s1)[C@@H]1C=C[C@H]2C1", "note": "[Example 68, (1R,2S,6R,7S)-4-[6-(3-thienyl)-1,3-benzothiazol-2-yl]-4-azatricyclo[5.2.1.02,6]dec-8-ene-3,5-dione]", "EC50": "1 to 5"},
      {"smiles": "O=C(Nc1nc2ccc(-c3ccoc3)cc2s1)[C@@H]1C2C=CC(C2)[C@@H]1C(=O)O", "note": "(some centres unmarked) [Example 69, 3-[[6-(3-furyl)-1,3-benzothiazol-2-yl]carbamoyl]bicyclo[2.2.1]hept-5-ene-2-carboxylic acid]", "EC50": "< 1"}
    ]}
  ]
}
